Measurements from US5332731A, “Cephalosporin derivatives” (Meiji Seika Kaisha, Ltd., priority 1989, dated 1994).

Key:
[1] = recovery in urine of mice after oral administration (paper-disc assay); assay type: in vivo, mice of ICR-strain; details: ICR mice, male, 0.5 mg per mouse oral; 0-4 h; molar %, as free carboxylic acid; averaged
Source text: Thus, some tests were made to evaluate the amount or rate of the cephalosporin compound of this invention which can be recovered as the antibacterially active compound from the urine after it was orally given to mice.
The test compounds estimated in this test for their rate of recovery from urine are Compounds Nos. 2, 4, 6, 8, 10, 12, 14, 16, 18, 20, 22, 24, 26, 28, 30, 32, 34, 36 and 38 identified hereinbefore which are the particular examples of the cephalosporin derivative of general formula (I) of this invention and which are in the form of the pivaloyloxymethyl ester.
To mice of ICR-strain (male, 4-weeks-aged, five mice in each group) was orally administered the test compound identified above at a dosage of 0.5 mg per mouse. By the end of 4 hours after the administration of the test compound, all the amounts of the urine excreted by the treated mice were collected together, and the total quantity of the cephalosporin compound of this invention (as the free carboxylic acid form) in the urine so collected was determined according to a paper-disc assay method using Escherichia coli K-12 8236 strain as the assay strain. […]

[2] = oral toxicity in mice; details: mouse, in vivo, oral administration, read-out: oral dosage tolerated without exhibiting toxic symptoms
Protocol: The new cephalosporin derivative of this invention may be administered orally at a unit dose of 100 mg to 250 mg to an adult human patient four times a day, for a guideline. However, precise dosage of the new cephalosporin is determinable through preliminary routine experiments, depending on the body weight, ages, sex and other various parameters of patients as well as the nature of the bacterial infections to be treated, and so on.

Row | Structure (SMILES) | Rate of recovery of test compound remaining in urine collected during 0 to 4 hours after oral administration [1] | NOAEL [2]
1 | CC(C)(C)C(=O)OCOC(=O)C1=C(SCC2CCOCC2)CS[C@@H]2C(NC(=O)/C(=N\O)c3csc(N)n3)C(=O)N12 (some centres unmarked) [Compound No. 38, pivaloyloxymethyl 7-[(Z)-2-(2-aminothiazol-4-yl)-2-hydroxyiminoacetamido]-3-(tetrahydropyran-4-yl) methylthio-3-cephem-4-carboxylate] | Less than detectable amount | –
2 | CO/N=C(\C(=O)NC1C(=O)N2C(C(=O)OCOC(=O)C(C)(C)C)=C(SC3CCOC3)CS[C@H]12)c1csc(N)n1 (some centres unmarked) [Compound No. 4, pivaloyloxymethyl 7-[(Z)-2-(2-aminothiazol-4-yl)-2-methoxyiminoacetamido]-3-(tetrahydrofuran-3-Yl) thio-3-cephem-4-carboxylate] | – | 3000 mg/kg
